pEC50, pIC50: −log10 of the molar value.
Columns and labels:
[1] = tested on: CHO-PDL1/Jurkat-PD1 cell pathway; experiment: Inhibition of CHO-PDL1/Jurkat-PD1 cell pathway (NFAT luciferase reporter); type: cell-based; conditions: for pEC50: 6 hours incubation, luciferase signal; for maximal fold induction: relative to the signal value of the non-dosed group, read-out: Maximum induction fold
Protocol: Test Embodiment 3. Inhibitory Effect of the Compounds of the Present Disclosure on CHO-PDL1/Jurkat-PD1 Cell Pathway
Experimental purpose: The purpose of this test embodiment was to test the inhibitory effect of compounds on the CHO-PDL1/Jurkat-PD1 cell pathway.
Experimental method: Two stably transfected cell lines were included in this experiment, CHO-K1 cells stably transfected with PD-L1 and Jurkat cells stably transfected with PD-1 and NFAT luciferase reporter genes. Compounds were incubated with the two cell lines. Then, due to the inhibitory effect on the PD-1/PD-L1 pathway, the activation degree of Jurkat cells changed, so that the level of the reporter gene NFAT in the downstream of Jurkat cells changed, and the level of NFAT was characterized by detecting the signal value of luciferase, so that the inhibitory effect of the test compound on CHO-PDL1/Jurkat-PD1 pathway was characterized.
CHO-PDL1 cells (Promega, #J1252) were cultured to a suitable cell density. After digestion, the cells were resuspended by complete medium to become a suitable density of cell suspension. The cell suspension was plated 100 μL per well on a 96-well plate (Corning, #3610), and placed in a 37° C., 5% CO2 incubator and incubated overnight, and assay medium (RPMI 1640+2% FBS, RPMI 1640 Cat. No.: Gibco, #22400089, FBS Cat. No.: Gibco, #10091148) was used to prepare compound solutions of different concentrations. NFAT-luc2/PD1 Jurkat cells (Promega, #J1252) were collected and resuspended to the appropriate cell density using assay medium. The supernatant of the CHO-PDL1 cell culture plate was aspirated, and 40 μL of the prepared compound solution and 40 μL of resuspended NFAT-luc2/PD1 Jurkat cells were added, and incubated in a 5% CO2 incubator at 37° C. for 6 hours, and the cell plate was taken out, then 40 μL of One-Glo reagent (Promega, #E6120) was added to each well, shaked and mixed well, incubated in the dark at room temperature for 10 minutes, then put into a microplate reader and the luminescence program was used to read the luminescence value of the cell plate.
The EC50 value was fitted according to the compound concentration and the luminescence signal value, and the maximum induction fold of each compound relative to the signal value of the non-dosed group was calculated, as shown in Table 3.

[2] = target: T1, PD-L1 protein on the surface of MC38-hPDL1 tumor cells (Homo sapiens, UniProt Q9NZQ7); experiment: Induction of endocytosis of PD-L1 on the surface of tumor cells (flow cytometry); type: cell-based; conditions: 16 hours incubation; for Emax: MC38-hPDL1 cells, read-out: MC38 maximum endocytosis rate; for pIC50: inducing endocytosis of PD-L1, MC38-hPDL1 cells, read-out: MC38 IC50
T1 construct: expressed in transfected cells; host or cells: MC38-hPDL1 (mouse colon cancer cells)
T1 sequence (Q9NZQ7 19-290): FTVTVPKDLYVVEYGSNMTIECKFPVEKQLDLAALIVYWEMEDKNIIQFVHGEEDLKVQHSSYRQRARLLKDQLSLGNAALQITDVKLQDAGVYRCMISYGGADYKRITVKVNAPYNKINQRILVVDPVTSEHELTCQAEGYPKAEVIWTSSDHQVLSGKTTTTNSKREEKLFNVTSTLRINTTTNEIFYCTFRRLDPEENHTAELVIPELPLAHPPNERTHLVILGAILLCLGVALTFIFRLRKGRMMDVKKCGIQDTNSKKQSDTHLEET
Summary of the method: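 IC50 comes from nonlinear fits of endocytosis rate, calculated from the loss of surface PE-anti-CD274 flow signal relative to vehicle. Cells were MC38 mouse colon cancer cells engineered to express high human PD-L1. Compound exposure lasted 16 h at 37 °C, 5% CO2.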

human PD-1/PD-L1 binding = target: T2, human PD-1/PD-L1 binding (Homo sapiens, UniProt Q9NZQ7); experiment: Inhibition of human PD-1/PD-L1 binding (TR-FRET/HTRF); conditions: TR-FRET, PD-L1-His and PD-1-Fc; read-out: PD-1/PD-L1 binding IC50
T2 construct: PD-L1-His protein (19 to 238 amino acids) (Abcam #ab167713); purchased Abcam (PD-L1-His); R&D (PD-1-Fc) ab167713; 1086-PD
T2 sequence (Q9NZQ7 19-238): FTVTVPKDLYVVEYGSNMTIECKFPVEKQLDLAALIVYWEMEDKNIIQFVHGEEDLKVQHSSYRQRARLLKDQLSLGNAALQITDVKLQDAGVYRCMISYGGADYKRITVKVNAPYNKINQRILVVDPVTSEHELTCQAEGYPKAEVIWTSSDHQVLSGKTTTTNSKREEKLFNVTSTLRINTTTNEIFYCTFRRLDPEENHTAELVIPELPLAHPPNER
Summary of the method: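 PD-L1-His (aa 19–238, diluted to 10 nM) and PD-1-Fc (aa 25–167, diluted to 20 nM) incubated with compounds (10 μM or 1 μM top, 3-fold, 11 doses) 60 min at room temperature, then anti-6HIS Eu cryptate/anti-human IgG-XL665 added for 3 h RT or overnight 4 °C. HTRF 665/620 nm ratio gave inhibition and IC50.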

human PD-L1 protein = target: T3, human PD-L1 protein (Homo sapiens, UniProt Q9NZQ7); experiment: Thermal shift: melting temperature of PD-L1 protein; type: binding; conditions: compound 10 μM, PD-L1 protein 2 μM, Tm minus DMSO vehicle control; read-out: ΔTm (° C.)
T3 construct: purchased Acro Biosystems PD1-H5229
T3 sequence (Q9NZQ7 19-238 limits assumed): as the sequence (Q9NZQ7 19-238) above
Summary of the method: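 Human PD-L1 at 2 μM final was tested in […], 150 mM NaCl with SYPRO Orange, heated 25→95 °C at 0.03 °C/s in a PCR melt-curve run. Tm was taken per treatment; ΔTm is the shift relative to DMSO vehicle.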

[3] = Pharmacokinetics test in Balb/C mice; type: in vivo; conditions: male, mouse, po, p.o. 5 mg/kg, plasma
Protocol: Test Embodiment 6. Pharmacokinetics Test in Balb/C Mice
Taking Balb/C mice as the test animals, the pharmacokinetic behavior in the plasma of mice of the following compound embodiments was studied when orally administered at a dose of 5 mg/kg.
Balb/C Mouse 6/embodiment, male, Shanghai Jisijie Laboratory Animal Co., Ltd., animal production license number (SCXK (Shanghai) 2013-0006 No. 311620400001794).
0.5% HPMC (1% Tween 80), dissolved by sonication, to prepare a clear solution or a homogeneous suspension.
Balb/C mice, male; p.o. after overnight fasting, respectively, at a dose of 5 mg/kg, administered in a volume of 10 mL/kg.
Before and after administration of mice, at 0, 0.5, 1, 2, 4, 6, 8 and 24 hours, 0.1 mL of blood was collected from the orbit, placed in an EDTA-K2 test tube, and centrifuged at 6000 rpm at 4° C. for 6 min to separate the plasma, stored at −80° C.
1) 40 μL of plasma samples were added to 160 μL of acetonitrile for precipitation, mixed and centrifuged at 3500×g for 5 to 20 minutes.
2) 100 μL of the supernatant solution after treatment was taken for LC/MS/MS to analyze the concentration of the compounds to be tested.
2.6 Liquid Phase Analysis • Liquid phase condition: Shimadzu LC-20AD pump • MS conditions: AB Sciex API 4000 Mass Spectrometer • Chromatographic column: phenomenex Gemiu 5 μm C18 50×4.6 mm • Mobile phase: A solution was aqueous 0.1% formic acid solution, B solution was acetonitrile • Flow rate: 0.8 mL/min • Elution time: 0 to 4.0 minutes, the eluent was as follows:
The main parameters of pharmacokinetics were calculated with WinNonlin 8.2, and the results of the mice pharmacokinetic experiments were shown in the following table: […]

Row | Structure (SMILES) | pEC50 [1] | maximal fold induction [1] | Emax [2] [%] | pIC50 [2] | pIC50 (human PD-1/PD-L1 binding) | ΔTm at 10 µM (human PD-L1 protein) [°C] | MRT inf ([3]; read-out: Average residence time MRT0−∞) [h] | AUC(0-t) ([3]; read-out: Curve area AUC0−t) [ng·h/mL] | Cmax ([3]; read-out: Drug concentration in plasma Cmax) [ng/mL] | half-life ([3]; read-out: Half life t1/2 (converted)) [h] | Tmax ([3]; read-out: Peak time tmax) [h]
1 | COc1cc(NCc2cnc(C(=O)Nc3cccc(-c4cccc(NC(=O)c5nc6c(n5C)CCN(CCO)C6)c4Cl)c3C)cc2OC)ccn1 [Embodiment 72, N-(2-Chloro-3′-(4-methoxy-5-(((2-methoxypyridin-4-yl)amino)methyl)picolinamido)-2′-methyl-[1,1′-biphenyl]-3-yl)-5-(2-hydroxyethyl)-1-methyl-4,5,6,7-tetrahydro-1H-imidazo[4,5-c]pyridine-2-carboxamide] | 7.14 | 3.1 | 88 | 8.19 | – | – | – | – | – | – | –
2 | COc1cc(C(=O)Nc2cccc(-c3cccc(NC(=O)c4nc5c(n4C)CCN(C)C5)c3Cl)c2C)ncc1CNCCNC(C)=O [Embodiment 40, N-(3′-(5-(((2-Acetylaminoethyl)amino)methyl)-4-methoxypicolinamido)-2-chloro-2′-methyl-[1,1′-biphenyl]-3-yl)-1,5-dimethyl-4,5,6,7-tetrahydro-1H-imidazo[4,5-c]pyridine-2-carboxamide] | 7.12 | 4 | 97 | 8.85 | 8.70 | – | – | – | – | – | –
3 | COc1cc(C(=O)Nc2cccc(-c3cccc(NC(=O)c4nc5c(n4C)CCN(C)C5)c3Cl)c2C)ncc1CN1CC[C@H](F)C1 [Embodiment 26, (S)—N-(2-Chloro-3′-(5-((3-fluoropyrrolidin-1-yl)methyl)-4-methoxypicolinamido)-2′-methyl-[1,1′-biphenyl]-3-yl)-1,5-dimethyl-4,5,6,7-tetrahydro-1H-imidazo[4,5-c]pyridine-2-carboxamide] | 7.05 | 3.9 | – | – | – | – | – | – | – | – | –
4 | CCN1CCc2c(nc(C(=O)Nc3cccc(-c4cccc(NC(=O)c5cc(OC)c(CNc6ccnc(C)c6F)cn5)c4C)c3Cl)n2C)C1 [Embodiment 78, N-(2-Chloro-3′-(5-(((3-fluoro-2-methylpyridin-4-yl)amino)methyl)-4-methoxypicolinamido)-2′-methyl-[1,1′-biphenyl]-3-yl)-5-ethyl-1-methyl-4,5,6,7-tetrahydro-1H-imidazo[4,5-c]pyridine-2-carboxamide] | 7.17 | 2.8 | – | – | – | – | – | – | – | – | –
5 | COc1cc(-c2cccc(-c3cccc(NC(=O)c4nc5c(n4C)CCN(C)C5)c3Cl)c2C)ncc1CNC[C@@H]1CCC(=O)N1 [Embodiment 58, (S)—N-(2-Chloro-3′-(4-methoxy-5-((((5-carbonylpyrrolidin-2-yl)methyl)amino)methyl)pyridin-2-yl)-2′-methyl-[1,1′-biphenyl]-3-yl)-1,5-dimethyl-4,5,6,7-tetrahydro-1H-imidazo[4,5-c]pyridine-2-carboxamide] | 7.00 | 3.5 | 94 | 8.29 | 8.82 | – | – | – | – | – | –
6 | COc1cc(C(=O)Nc2cccc(-c3cccc(NC(=O)c4nc5c(n4C)CCN(C)C5)c3Cl)c2C)ncc1CNCC(C)O (stereo in doubt) [Embodiment 38, (S)—N-(2-Chloro-3′-(5-(((2-hydroxypropyl)amino)methyl)-4-methoxypicolinamido)-2′-methyl-[1,1′-biphenyl]-3-yl)-1,5-dimethyl-4,5,6,7-tetrahydro-1H-imidazo[4,5-c]pyridine-2-carboxamide] | 7.34 | 3.7 | 96 | 9.22 | 8.55 | – | – | – | – | – | –
7 | COc1cc(C(=O)Nc2cccc(-c3cccc(NC(=O)c4nc5c(n4C)CCN(C)C5)c3Cl)c2C)ncc1CNCCO [Embodiment 37, N-(2-Chloro-3′-(5-(((2-hydroxyethyl)amino)methyl)-4-methoxypicolinamido)-2′-methyl-[1,1′-biphenyl]-3-yl)-1,5-dimethyl-4,5,6,7-tetrahydro-1H-imidazo[4,5-c]pyridine-2-carboxamide] | 7.20 | 4.8 | 97 | 9.22 | 8.82 | – | – | – | – | – | –
8 | COc1nc(-c2cccc(-c3cccc(NC(=O)c4nc5c(n4C)CCN(C)C5)c3Cl)c2Cl)ccc1CN[C@@H]1CCCC[C@@H]1O [Embodiment 176, N-(2,2′-Dichloro-3′-(5-((((1R,2S)-2-hydroxycyclohexyl)amino)methyl)-6-methoxypyridin-2-yl)-[1,1′-biphenyl]-3-yl)-1,5-dimethyl-4,5,6,7-tetrahydro-1H-imidazo[4,5-c]pyridine-2-carboxamide] | – | – | 97 | 8.92 | – | 24.3 | 21.6 | 629 | 55 | 15.2 | 2
9 | COc1nc(-c2cccc(-c3cccc(NC(=O)c4nc5c(n4C4CC4)CCN(C)C5)c3Cl)c2Cl)ccc1CN1CC2(C1)CN(C(C)=O)C2 [Embodiment 243, N-(3′-(5-((6-Acetyl-2,6-diazaspiro[3.3]heptan-2-yl)methyl)-6-methoxypyridin-2-yl)-2,2′-dichloro-[1,1′-biphenyl]-3-yl)-1-cyclopropyl-5-methyl-4,5,6,7-tetrahydro-1H-imidazo[4,5-c]pyridine-2-carboxamide] | 7.13 | 3.1 | 91 | – | 8.08 | – | – | – | – | – | –
10 | COc1cc(C(=O)Nc2cccc(-c3cccc(NC(=O)c4nc5c(n4C)CCN(C)C5)c3Cl)c2C)ncc1CNc1ccnc(C)c1F [Embodiment 6, N-(2-Chloro-3′-(5-(((3-fluoro-2-methylpyridin-4-yl)amino)methyl)-4-methoxypicolinamido)-2′-methyl-[1,1′-biphenyl]-3-yl)-1,5-dimethyl-4,5,6,7-tetrahydro-1H-imidazo[4,5-c]pyridine-2-carboxamide] | 7.22 | 3.3 | 93 | 8.96 | – | – | – | – | – | – | –

From patent US20230105212A1, “BIPHENYL DERIVATIVE INHIBITOR, PREPARATION METHOD THEREFOR AND USE THEREOF” (SHANGHAI HANSOH BIOMEDICAL CO., LTD., priority 2020, published 2023)
